Columns and labels:
[1] = target: High affinity nerve growth factor receptor (Homo sapiens, UniProt P04629); assay: Inhibitory Activity of Compounds on TRKA, TRKB and TRKC
[2] = target: NT-3 growth factor receptor (Homo sapiens, UniProt Q16288); assay: as above
[3] = target: BDNF/NT-3 growth factors receptor (Homo sapiens, UniProt Q16620); assay: as above
[4] = target: Proto-oncogene tyrosine-protein kinase receptor Ret (Homo sapiens, UniProt P07949); assay: Inhibitory Activity of Compounds on RET Kinase
Chain of Proto-oncogene tyrosine-protein kinase receptor Ret (P07949 whole entry): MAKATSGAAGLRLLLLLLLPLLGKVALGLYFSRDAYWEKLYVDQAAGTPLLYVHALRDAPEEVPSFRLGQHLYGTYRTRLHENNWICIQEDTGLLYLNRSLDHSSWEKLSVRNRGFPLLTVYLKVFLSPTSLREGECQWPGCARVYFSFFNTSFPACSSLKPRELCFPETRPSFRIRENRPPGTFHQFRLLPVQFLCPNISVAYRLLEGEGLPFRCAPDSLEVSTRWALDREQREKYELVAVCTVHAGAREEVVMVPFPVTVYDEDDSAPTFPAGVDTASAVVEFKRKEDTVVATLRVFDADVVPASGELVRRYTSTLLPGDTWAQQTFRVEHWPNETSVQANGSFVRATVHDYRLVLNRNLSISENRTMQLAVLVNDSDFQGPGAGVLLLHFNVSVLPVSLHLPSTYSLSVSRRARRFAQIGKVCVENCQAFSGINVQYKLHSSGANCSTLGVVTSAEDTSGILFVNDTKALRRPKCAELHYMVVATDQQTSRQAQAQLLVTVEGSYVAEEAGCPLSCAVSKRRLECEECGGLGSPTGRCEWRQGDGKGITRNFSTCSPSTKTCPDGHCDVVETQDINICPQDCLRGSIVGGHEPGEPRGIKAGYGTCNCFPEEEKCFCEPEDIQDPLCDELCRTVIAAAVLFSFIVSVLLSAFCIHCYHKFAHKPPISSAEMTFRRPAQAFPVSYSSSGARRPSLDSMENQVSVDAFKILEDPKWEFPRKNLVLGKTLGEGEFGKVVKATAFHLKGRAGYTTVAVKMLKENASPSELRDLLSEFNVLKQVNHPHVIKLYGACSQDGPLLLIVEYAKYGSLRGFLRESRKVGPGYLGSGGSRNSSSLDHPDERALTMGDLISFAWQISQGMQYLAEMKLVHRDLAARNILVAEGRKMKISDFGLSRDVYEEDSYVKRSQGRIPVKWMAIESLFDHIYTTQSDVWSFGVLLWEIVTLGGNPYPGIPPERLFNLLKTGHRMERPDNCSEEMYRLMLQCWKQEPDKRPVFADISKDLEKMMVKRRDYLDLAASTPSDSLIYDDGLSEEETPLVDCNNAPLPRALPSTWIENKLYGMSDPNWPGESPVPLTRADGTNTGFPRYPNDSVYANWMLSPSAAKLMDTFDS

Chain of High affinity nerve growth factor receptor (P04629 whole entry): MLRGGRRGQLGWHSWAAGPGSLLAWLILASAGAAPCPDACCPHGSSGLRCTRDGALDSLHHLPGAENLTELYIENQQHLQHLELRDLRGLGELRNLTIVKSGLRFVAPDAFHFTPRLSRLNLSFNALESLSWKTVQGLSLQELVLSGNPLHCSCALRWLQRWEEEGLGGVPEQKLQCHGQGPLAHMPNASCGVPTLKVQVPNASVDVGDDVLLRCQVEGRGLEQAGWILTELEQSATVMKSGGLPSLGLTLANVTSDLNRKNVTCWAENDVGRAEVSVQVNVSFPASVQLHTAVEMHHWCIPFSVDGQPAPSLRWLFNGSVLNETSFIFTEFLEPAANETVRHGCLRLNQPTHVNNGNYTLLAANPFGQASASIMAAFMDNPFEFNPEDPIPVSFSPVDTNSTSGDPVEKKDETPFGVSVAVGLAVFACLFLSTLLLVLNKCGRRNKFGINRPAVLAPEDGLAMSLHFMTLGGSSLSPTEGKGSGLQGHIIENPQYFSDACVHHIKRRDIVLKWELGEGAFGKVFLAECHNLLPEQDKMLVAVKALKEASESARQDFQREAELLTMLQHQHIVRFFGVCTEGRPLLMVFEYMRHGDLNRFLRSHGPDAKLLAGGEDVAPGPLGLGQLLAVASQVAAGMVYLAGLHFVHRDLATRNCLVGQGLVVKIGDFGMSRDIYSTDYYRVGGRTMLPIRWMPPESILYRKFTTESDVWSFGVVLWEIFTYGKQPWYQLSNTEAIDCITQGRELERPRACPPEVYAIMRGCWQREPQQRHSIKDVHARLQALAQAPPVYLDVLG
Chain of BDNF/NT-3 growth factors receptor (Q16620 whole entry): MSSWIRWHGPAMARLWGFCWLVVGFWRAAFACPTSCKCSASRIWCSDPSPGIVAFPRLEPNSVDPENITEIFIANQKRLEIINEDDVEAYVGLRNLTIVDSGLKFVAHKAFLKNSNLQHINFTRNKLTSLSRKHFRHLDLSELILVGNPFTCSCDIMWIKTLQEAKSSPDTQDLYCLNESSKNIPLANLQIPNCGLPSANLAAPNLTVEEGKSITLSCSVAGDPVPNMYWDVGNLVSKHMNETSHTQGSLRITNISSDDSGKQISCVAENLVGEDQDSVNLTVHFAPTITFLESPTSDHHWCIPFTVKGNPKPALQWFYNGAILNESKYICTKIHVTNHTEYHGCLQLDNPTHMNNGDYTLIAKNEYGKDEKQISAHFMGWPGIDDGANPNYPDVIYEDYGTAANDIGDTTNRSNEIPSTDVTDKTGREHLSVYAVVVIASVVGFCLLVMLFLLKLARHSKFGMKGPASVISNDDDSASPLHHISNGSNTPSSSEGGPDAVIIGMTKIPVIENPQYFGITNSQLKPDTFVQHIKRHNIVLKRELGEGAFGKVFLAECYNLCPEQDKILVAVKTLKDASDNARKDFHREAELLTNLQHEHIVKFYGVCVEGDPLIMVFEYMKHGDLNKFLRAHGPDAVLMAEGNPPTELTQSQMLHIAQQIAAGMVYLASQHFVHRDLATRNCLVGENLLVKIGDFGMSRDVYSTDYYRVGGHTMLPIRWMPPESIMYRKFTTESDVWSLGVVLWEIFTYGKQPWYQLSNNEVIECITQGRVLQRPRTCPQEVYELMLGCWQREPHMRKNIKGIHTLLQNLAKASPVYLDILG
Chain of NT-3 growth factor receptor (Q16288 whole entry): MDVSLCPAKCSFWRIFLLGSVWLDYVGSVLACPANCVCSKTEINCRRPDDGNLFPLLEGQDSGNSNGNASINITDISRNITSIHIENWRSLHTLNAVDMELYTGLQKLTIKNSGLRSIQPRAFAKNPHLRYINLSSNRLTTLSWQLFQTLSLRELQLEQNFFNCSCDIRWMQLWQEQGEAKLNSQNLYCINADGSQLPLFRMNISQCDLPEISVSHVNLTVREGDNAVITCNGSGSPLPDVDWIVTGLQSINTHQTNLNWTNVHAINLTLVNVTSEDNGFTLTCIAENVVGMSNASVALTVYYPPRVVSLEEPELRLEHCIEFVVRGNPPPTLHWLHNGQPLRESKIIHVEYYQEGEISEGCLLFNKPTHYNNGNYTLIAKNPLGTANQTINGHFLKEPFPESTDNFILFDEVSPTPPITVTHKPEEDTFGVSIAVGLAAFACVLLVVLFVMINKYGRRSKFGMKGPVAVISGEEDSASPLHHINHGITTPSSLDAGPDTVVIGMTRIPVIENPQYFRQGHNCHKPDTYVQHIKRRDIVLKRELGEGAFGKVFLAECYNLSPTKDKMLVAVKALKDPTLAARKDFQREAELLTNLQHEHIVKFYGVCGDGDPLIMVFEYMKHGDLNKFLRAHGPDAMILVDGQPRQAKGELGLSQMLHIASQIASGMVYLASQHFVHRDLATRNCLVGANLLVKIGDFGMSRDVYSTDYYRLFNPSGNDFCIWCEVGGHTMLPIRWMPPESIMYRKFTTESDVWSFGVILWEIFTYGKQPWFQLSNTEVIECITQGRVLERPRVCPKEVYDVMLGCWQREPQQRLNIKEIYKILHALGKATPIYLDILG

| IC50 [1] [nM] | IC50 [2] [nM] | IC50 [3] [nM] | IC50 [4] [nM] | Compound |
| --- | --- | --- | --- | --- |
| 2.82 | 1.49 | 5.86 |  | CCc1cc(O)c(F)cc1-c1ccc2c(-c3nc4c([nH]3)CN(C3CCCN3C(=O)N3CCCC3N3Cc5nc(-c6n[nH]c7cc(-c8cc(F)c(O)cc8CC)ccc67)[nH]c5C3)C4)n[nH]c2c1 (stereo not drawn) [US20250387388, Compound MDI-231] |
| 9.01 | 6.32 | 30.4 |  | CCc1cc(O)c(F)cc1-c1ccc2c(-c3nc4c([nH]3)CN(C3CCCCN3C(=O)N3CCCCC3N3Cc5nc(-c6n[nH]c7cc(-c8cc(F)c(O)cc8CC)ccc67)[nH]c5C3)C4)n[nH]c2c1 (stereo not drawn) [US20250387388, Compound MDI-233] |
| 0.83 | 0.57 | 3.37 | 0.99 | CCc1cc(O)c(F)cc1-c1ccc2c(-c3nc4c([nH]3)CN(C3CC(O)CCN3C(=O)N3CCC(O)CC3N3Cc5nc(-c6n[nH]c7cc(-c8cc(F)c(O)cc8CC)ccc67)[nH]c5C3)C4)n[nH]c2c1 (stereo not drawn) [US20250387388, Compound MDI-245] |
| 0.23 | 0.2 | 1.06 |  | CCc1cc(O)c(F)cc1-c1ccc2c(-c3nc4c([nH]3)CN(C3CN(CC)CCN3C(=O)N3CCN(CC)CC3N3Cc5nc(-c6n[nH]c7cc(-c8cc(F)c(O)cc8CC)ccc67)[nH]c5C3)C4)n[nH]c2c1 (stereo not drawn) [US20250387388, Compound MDI-236] |
| 1.07 | 0.65 | 1.27 |  | CCc1cc(O)c(F)cc1-c1ccc2c(-c3nc4c([nH]3)CN(C3CN(C(=O)N5CCOC(N6Cc7nc(-c8n[nH]c9cc(-c%10cc(F)c(O)cc%10CC)ccc89)[nH]c7C6)C5)CCO3)C4)n[nH]c2c1 (stereo not drawn) [US20250387388, Compound MDI-234] |
| 0.57 | 0.27 | 1.39 | 0.1 | CCc1cc(O)c(F)cc1-c1ccc2c(-c3nc4c([nH]3)CN(C3CN(C)CCN3C(=O)N3CCN(C)CC3N3Cc5nc(-c6n[nH]c7cc(-c8cc(F)c(O)cc8CC)ccc67)[nH]c5C3)C4)n[nH]c2c1 (stereo not drawn) [US20250387388, Compound MDI-235] |
| 5.76 | 2.2 | 6.14 |  | CCc1cc(O)c(F)cc1-c1ccc2c(-c3nc4c([nH]3)CN(c3nc(N5CCOCC5)cnc3C(=O)c3ncc(N5CCOCC5)nc3N3Cc5nc(-c6n[nH]c7cc(-c8cc(F)c(O)cc8CC)ccc67)[nH]c5C3)C4)n[nH]c2c1 [US20250387388, Compound MDI-201] |

Source: BindingDB's records for patent US20250387388 (Medinno Pharmaceutical Technology (Zhuhai) Co., 2025)
